Active and inactive are the calls of the source. No cut-off for these calls is given here.
What was measured:
Streptococcus pneumoniae [1] = experiment: Antibacterial activity against tnpR/tnpA positive tetracycline resistant Streptococcus pneumoniae clinical isolate expressing Tn3872 carrying erm(B) and tet(M) gene at 1000 ug by disk diffusion method; format: functional, organism-based
Streptococcus pneumoniae [2] = experiment: Antibacterial activity against tetracycline resistant Streptococcus pneumoniae clinical isolate expressing Tn6002 carrying erm(B) and tet(M) gene at 1000 ug by disk diffusion method; format: functional, organism-based
Streptococcus pneumoniae [3] = experiment: Antibacterial activity against aphA-3 positive tetracycline resistant Streptococcus pneumoniae clinical isolate expressing Tn6003 carrying erm(B)and tet(M) gene at 1000 ug by disk diffusion method; format: functional, organism-based
Streptococcus pneumoniae [4] = experiment: Antibacterial activity against tetracycline resistant Streptococcus pneumoniae clinical isolate expressing erm(B) and tet(M) gene by agar dilution CLSI method; format: functional

Row | SMILES | Activity (Streptococcus pneumoniae [1]) | Activity (Streptococcus pneumoniae [2]) | Activity (Streptococcus pneumoniae [3]) | MIC (Streptococcus pneumoniae [4]) [µg/mL]
1 | NC[C@H]1O[C@H](O[C@H]2[C@H](O)[C@@H](O[C@H]3O[C@H](CO)[C@@H](O)[C@H](N)[C@H]3O)[C@H](N)C[C@@H]2N)[C@H](O)[C@@H](O)[C@@H]1O | Active | Active | inactive | 
2 | CC[C@H]1OC(=O)[C@H](C)[C@@H](O[C@H]2C[C@@](C)(OC)[C@@H](O)[C@H](C)O2)[C@H](C)[C@@H](O[C@@H]2O[C@H](C)C[C@H](N(C)C)[C@H]2O)[C@](C)(O)C[C@@H](C)C(=O)[C@H](C)[C@@H](O)[C@]1(C)O [ERYTHROMYCIN] |  |  |  | > 128
3 | CN(C)[C@@H]1C(O)=C(C(N)=O)C(=O)[C@@]2(O)C(O)=C3C(=O)c4c(O)cccc4[C@@](C)(O)[C@H]3C[C@@H]12 [TETRACYCLINE] |  |  |  | > 32

From ChEMBL document CHEMBL1255326, “erm(B)-carrying elements in tetracycline-resistant pneumococci and correspondence between Tn1545 and Tn6003” (2008)
